For assay [1], the system named is phospho-ERK in GP2D (KRAS-G12D) cells. In words: pERK In Cell Western (ICW) assay (Method B), GP2D. It counts as cell-based. The following applies: GP2d, 3 h, Table 4. A digest of the protocol: (§1)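 Per well, infrared pERK immunofluorescence was divided by DRAQ5 nuclear signal following 3 h treatment with a 9-point, ½-log compound series; seeding was 5,000 (AGS) or 10,000 (GP2D, SW620) cells per well. Percent-of-blank data were fitted to a four-parameter model for IC50.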

Assay [2] concerns phospho-ERK in SW620 (KRAS-G12V) cells. The assay is described as follows: pERK In Cell Western (ICW) assay (Method B), SW620. Format: cell-based. The following applies: Homo sapiens, SW-620, 3 h, Table 4. A digest of the protocol: as §1
The target of assay [3] is GST-tagged KRAS-G12D (2-169) (Homo sapiens, UniProt P01116, G12D). In words: Nucleotide exchange assay (NEA), SOS-mediated, HTRF, KRAS G12D. Format: biochemical. The following applies: Table 4; IC50 extracted at 30 min; 20 nM SOScat; read-out: NEA G12D IC50. A digest of the protocol:
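SOS1cat-driven loading of fluorescent GTP-DY-647P1 (150 nM) onto GST-KRAS-G12D (2-169, 0.25 nM) read by time-resolved FRET; SOScat 20 nM, compound preincubated with KRAS 1 h at RT. Signal blanked to no-SOS reactions, normalized to DMSO; IC50 fitted from the 30-min read.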

The target in assay [4] is GST-tagged KRAS-G12V (2-169) (Homo sapiens, UniProt P01116, G12V). In words: Nucleotide exchange assay (NEA), SOS-mediated, HTRF, KRAS G12V. The following applies: Table 4; IC50 extracted at 90 min; 80 nM SOS. Format: biochemical. A digest of the protocol:
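Exchange onto fluorescent GTP-DY-647P1 (150 nM final) catalysed by 80 nM SOS1cat was followed by Tb-anti-GST HTRF at RT for up to 90 min, after 1 h compound pre-incubation with 0.25 nM GST-tagged KRAS-G12V (2-169), pH 7.3. DMSO = 0%, no-SOS blank = 100%; 4-parameter IC50 taken at 90 min.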
(In general: Time-resolved FRET reads energy transfer from a long-lived donor to a nearby acceptor.)

Sequence of GST-tagged KRAS-G12V (2-169) (P01116 2-169 isoform P01116-2 G12V): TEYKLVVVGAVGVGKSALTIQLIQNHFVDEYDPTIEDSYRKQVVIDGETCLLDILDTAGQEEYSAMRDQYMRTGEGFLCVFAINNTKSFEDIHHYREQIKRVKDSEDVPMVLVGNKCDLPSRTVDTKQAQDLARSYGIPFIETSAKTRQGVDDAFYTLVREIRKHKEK
Sequence of GST-tagged KRAS-G12D (2-169) (P01116 2-169 isoform P01116-2 G12D): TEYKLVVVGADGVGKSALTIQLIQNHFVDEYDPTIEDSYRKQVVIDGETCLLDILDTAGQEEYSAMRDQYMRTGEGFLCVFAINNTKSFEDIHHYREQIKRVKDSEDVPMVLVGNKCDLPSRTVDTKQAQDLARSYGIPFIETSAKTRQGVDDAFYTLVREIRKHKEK

For orientation: IC50 means the point on the concentration scale where inhibition reaches its midpoint. Regarding `CC(c1cccnc1N)N(C)c1nc(OCCc2nccn2C)nc(N2CC3(CCc4sc(N)c(C#N)c43)C2)n1` (centres unmarked) [Compound 117, 2-amino-1′-[4-[1-(2-amino-3-pyridyl)ethyl-methyl-amino]-6-[2-(1-methylimidazol-2-yl)ethoxy]-1,3,5-triazin-2-yl]spiro[5,6-dihydrocyclopenta[b]thiophene-4,3′-azetidine]-3-carbonitrile], the IC50 in assay [1] lay in the range of 100 to 1000 nM; in assay [2], 100 to 1000 nM; in assay [3] it was 100 to 1000 nM; in assay [4], 10 to 100 nM.
For the molecule `CC(c1cccnc1N)N(CCC#N)c1nc(OC[C@@]23CCCN2C[C@H](F)C3)nc(N2CC3(CCc4sc(N)c(C#N)c43)C2)n1` (stereo partly drawn) [Compound 118, 2-amino-1′-[4-[1-(2-amino-3-pyridyl)ethyl-(2-cyanoethyl)amino]-6-[[(2R,8S)-2-fluoro-1,2,3,5,6,7-hexahydropyrrolizin-8-yl]methoxy]-1,3,5-triazin-2-yl]spiro[5,6-dihydrocyclopenta[b]thiophene-4,3′-azetidine]-3-carbonitrile], the IC50 in assay [1], in assay [2], in assay [3] and in assay [4] was < 10 nM each time.
For the molecule `C[C@@]1(O)C[C@@H](F)CN(c2nc(OC[C@@]34CCCN3C[C@H](F)C4)nc(N3CC4(C3)SCc3sc(N)c(C#N)c34)n2)C1` [Compound 123, 2-amino-1′-[4-[[(2R,8S)-2-fluoro-1,2,3,5,6,7-hexahydropyrrolizin-8-yl]methoxy]-6-[(3R,5R)-5-fluoro-3-hydroxy-3-methyl-1-piperidyl]-1,3,5-triazin-2-yl]spiro[6H-thieno[3,4-b]thiophene-4,3′-azetidine]-3-carbonitrile], the IC50 in assay [1] is 10 to 100 nM; in assay [2], 100 to 1000 nM; in assay [3] it was < 10 nM; in assay [4], < 10 nM.
With `CC(c1nccnc1N)N(CCO)c1nc(OC[C@@]23CCCN2C[C@H](F)C3)nc(N2CC3(CCc4sc(N)c(C#N)c43)C2)n1` (stereo partly drawn) [Compound 124, 2-amino-1′-[4-[1-(3-aminopyrazin-2-yl)ethyl-(2-hydroxyethyl)amino]-6-[[(2R,8S)-2-fluoro-1,2,3,5,6,7-hexahydropyrrolizin-8-yl]methoxy]-1,3,5-triazin-2-yl]spiro[5,6-dihydrocyclopenta[b]thiophene-4,3′-azetidine]-3-carbonitrile], the concentration for half-maximal inhibition (IC50) in assay [1] was 100 to 1000 nM; in assay [2], 10 to 100 nM; in assay [3], < 10 nM; in assay [4], < 10 nM.
On to `CC(c1cccnc1N)N(C)c1nc(OCC2(CN3CCOCC3)CC2)nc(N2CC3(C2)SCc2sc(N)c(C#N)c23)n1` (centres unmarked) [Compound 128, 2-amino-1′-[4-[1-(2-amino-3-pyridyl)ethyl-methyl-amino]-6-[[1-(morpholinomethyl)cyclopropyl]methoxy]-1,3,5-triazin-2-yl]spiro[6H-thieno[3,4-b]thiophene-4,3′-azetidine]-3-carbonitrile], for which the IC50 in assay [1] is 100 to 1000 nM; in assay [2], 10 to 100 nM; in assay [3] it was 10 to 100 nM; in assay [4] it was < 10 nM.
Regarding `CC(c1ccn[nH]1)N(C)c1nc(OC[C@@]23CCCN2C[C@H](F)C3)nc(N2CC3(CCc4sc(N)c(C#N)c43)C2)n1` (stereo partly drawn) [Compound 129, 2-amino-1′-[4-[methyl-[1-(1H-pyrazol-5-yl)ethyl]amino]-6-[[(2R,8S)-2-fluoro-1,2,3,5,6,7-hexahydropyrrolizin-8-yl]methoxy]-1,3,5-triazin-2-yl]spiro[5,6-dihydrocyclopenta[b]thiophene-4,3′-azetidine]-3-carbonitrile], the IC50 in assay [1] was 1000 to 20000 nM; in assay [2] it was 1000 to 20000 nM; in assay [3], 100 to 1000 nM; in assay [4], < 10 nM.
In the case of `N#Cc1c(N)sc2c1C1(CC2)CN(c2nc(OC[C@@]34CCCN3C[C@H](F)C4)nc(N3CCCC4(CC(=O)N4)C3)n2)C1` (stereo partly drawn) [Compound 130, 2-amino-1′-[4-[[(2R,8S)-2-fluoro-1,2,3,5,6,7-hexahydropyrrolizin-8-yl]methoxy]-6-(2-oxo-1,8-diazaspiro[3.5]nonan-8-yl)-1,3,5-triazin-2-yl]spiro[5,6-dihydrocyclopenta[b]thiophene-4,3′-azetidine]-3-carbonitrile], the IC50 in assay [1] was 100 to 1000 nM; in assay [2], 1000 to 20000 nM; in assay [3], < 10 nM; in assay [4], < 10 nM.
With `CC(c1cc(Cl)nnc1N)N(C)c1nc(OC[C@@]23CCCN2C[C@H](F)C3)nc(N2CC3(CCc4sc(N)c(C#N)c43)C2)n1` (stereo partly drawn) [Compound 132, 2′-amino-1-(4-((1-(3-amino-6-chloropyridazin-4-yl)ethyl)(methyl)amino)-6-(((2R,7aS)-2-fluorotetrahydro-1H-pyrrolizin-7a(5H)-yl)methoxy)-1,3,5-triazin-2-yl)-5′,6′-dihydrospiro[azetidine-3,4′-cyclopenta[b]thiophene]-3′-carbonitrile], the concentration for half-maximal inhibition (IC50) is 1000 to 20000 nM in assay [1], 100 to 1000 nM in assay [2], 10 to 100 nM in assay [3] and < 10 nM in assay [4].
For the molecule `N#Cc1c(N)sc2c1C1(CC2)CN(c2nc(OC[C@@]34CCCN3C[C@H](F)C4)nc(N(CCO)Cc3cc(F)cnc3N)n2)C1` [Compound 133, 2-amino-1′-[4-[(2-amino-5-fluoro-3-pyridyl)methyl-(2-hydroxyethyl)amino]-6-[[(2R,8S)-2-fluoro-1,2,3,5,6,7-hexahydropyrrolizin-8-yl]methoxy]-1,3,5-triazin-2-yl]spiro[5,6-dihydrocyclopenta[b]thiophene-4,3′-azetidine]-3-carbonitrile], the half-maximal inhibitory concentration (IC50) was 100 to 1000 nM in assay [1], 10 to 100 nM in assay [2], < 10 nM in assay [3] and < 10 nM in assay [4].
With `CC(c1nccnc1N)N(C)c1nc(OC[C@@]23CCCN2C[C@H](F)C3)nc(N2CC3(C2)SCc2sc(N)c(C#N)c23)n1` (stereo partly drawn) [Compound 134, 2-amino-1′-[4-[1-(3-aminopyrazin-2-yl)ethyl-methyl-amino]-6-[[(2R,8S)-2-fluoro-1,2,3,5,6,7-hexahydropyrrolizin-8-yl]methoxy]-1,3,5-triazin-2-yl]spiro[6H-thieno[3,4-b]thiophene-4,3′-azetidine]-3-carbonitrile], the IC50 in assay [1] is 10 to 100 nM; in assay [2], < 10 nM; in assay [3], < 10 nM; in assay [4], < 10 nM.
For the molecule `N#Cc1c(N)sc2c1C1(CC2)CN(c2nc(OC[C@@]34CCCN3C[C@H](F)C4)nc(N(CCO)Cc3ccc[nH]c3=O)n2)C1` [Compound 136, 2-amino-1′-[4-[[(2R,8S)-2-fluoro-1,2,3,5,6,7-hexahydropyrrolizin-8-yl]methoxy]-6-[2-hydroxyethyl-[(2-oxo-1H-pyridin-3-yl)methyl]amino]-1,3,5-triazin-2-yl]spiro[5,6-dihydrocyclopenta[b]thiophene-4,3′-azetidine]-3-carbonitrile], the half-inhibitory concentration (IC50) in assay [1] fell in the range of 1000 to 20000 nM; in assay [2], 1000 to 20000 nM; in assay [3] it was 100 to 1000 nM; in assay [4], 100 to 1000 nM.
With `N#Cc1c(N)sc2c1C1(CC2)CN(c2nc(OC[C@@]34CCCN3C[C@H](F)C4)nc(N(CCO)Cc3cn[nH]c3)n2)C1` [Compound 137, 2-amino-1′-[4-[[(2R,8S)-2-fluoro-1,2,3,5,6,7-hexahydropyrrolizin-8-yl]methoxy]-6-[2-hydroxyethyl(1H-pyrazol-4-ylmethyl)amino]-1,3,5-triazin-2-yl]spiro[5,6-dihydrocyclopenta[b]thiophene-4,3′-azetidine]-3-carbonitrile], the IC50 in assay [1] lay in the range of 1000 to 20000 nM; in assay [2], 1000 to 20000 nM; in assay [3], 100 to 1000 nM; in assay [4], 10 to 100 nM.
As to `CC(c1cccnc1O)N(C)c1nc(OC[C@@]23CCCN2C[C@H](F)C3)nc(N2CC3(CCc4sc(N)c(C#N)c43)C2)n1` (stereo partly drawn) [Compound 138, 2-amino-1′-[4-[[(2R,8S)-2-fluoro-1,2,3,5,6,7-hexahydropyrrolizin-8-yl]methoxy]-6-[1-(2-hydroxy-3-pyridyl)ethyl-methyl-amino]-1,3,5-triazin-2-yl]spiro[5,6-dihydrocyclopenta[b]thiophene-4,3′-azetidine]-3-carbonitrile], the IC50 in assay [1] is 1000 to 20000 nM; in assay [2] it was 1000 to 20000 nM; in assay [3], 100 to 1000 nM; in assay [4], 1000 to 20000 nM.
Consider `CCN(c1nc(OC[C@@]23CCCN2C[C@H](F)C3)nc(N2CC3(C2)SCc2sc(N)c(C#N)c23)n1)[C@H](C)c1cccnc1N` [Compound 139A, 2-amino-1′-[4-[[(1*)-1-(2-amino-3-pyridyl)ethyl]-ethyl-amino]-6-[[(2R,8S)-2-fluoro-1,2,3,5,6,7-hexahydropyrrolizin-8-yl]methoxy]-1,3,5-triazin-2-yl]spiro[6H-thieno[3,4-b]thiophene-4,3′-azetidine]-3-carbonitrile], for which the IC50 in assay [1], in assay [2], in assay [3] and in assay [4] was < 10 nM each time.
